Experimental data taken from patent US12060349B2, “Glucosylceramide synthase inhibitors” (Genzyme Corporation, priority 2012, dated 2024).
Like-named read-outs stand apart in the source and are kept apart here.

Columns and labels:
B16 mouse melanoma cells = assay: cell viability in the B16 cell-based assay (Viability, B16 IC50)
Method in brief: (§1)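 Two melanoma lines, mouse B16 and human C32, were treated and surface GM3 quantified by antibody immunofluorescence for IC50. A parallel viability readout gives the concentration killing 50% of cells, with values over 10 indicating no cell death.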

C32 human melanoma cells = assay: cell viability in the C32 cell-based assay (Viability, C32 IC50); conditions: concentration causing 50% cell death, values greater than 10 represent a lack of cell death
Method in brief: as §1

[1] = system: GM3 expression on the cell surface, C32 human melanoma cells; assay: cell based phenotypic assay, cell surface GM3 by antibody mediated immunofluorescence, C32 (GM3 C32 IC50); conditions: 50% inhibition of GM3 expression on the cell surface
Method in brief: (§2)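 B16 mouse and C32 human melanoma cells; cell-surface GM3 measured by antibody-mediated immunofluorescence, giving IC50.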

[2] = system: GM3 expression on the cell surface, B16 mouse melanoma cells; assay: cell based phenotypic assay, cell surface GM3 by antibody mediated immunofluorescence, B16 (GM3 B16 IC50); conditions: 50% inhibition of GM3 expression on the cell surface
Method in brief: as §2

[3] = target: T1, glucosylceramide synthase (Homo sapiens, UniProt Q16739); assay: microsomal assay measuring conversion of ceramide to glucosylceramide by HPLC (GCS IC50); assay type: biochemical; conditions: concentration causing 50% inhibition of glucosylceramide synthase activity
T1 construct: Microsomes were isolated from A375 human melanoma cells; endogenous in cells; host or cells: A375 human melanoma cells (microsomal fraction, 100,000 g pellet)
T1 sequence (Q16739 1-394): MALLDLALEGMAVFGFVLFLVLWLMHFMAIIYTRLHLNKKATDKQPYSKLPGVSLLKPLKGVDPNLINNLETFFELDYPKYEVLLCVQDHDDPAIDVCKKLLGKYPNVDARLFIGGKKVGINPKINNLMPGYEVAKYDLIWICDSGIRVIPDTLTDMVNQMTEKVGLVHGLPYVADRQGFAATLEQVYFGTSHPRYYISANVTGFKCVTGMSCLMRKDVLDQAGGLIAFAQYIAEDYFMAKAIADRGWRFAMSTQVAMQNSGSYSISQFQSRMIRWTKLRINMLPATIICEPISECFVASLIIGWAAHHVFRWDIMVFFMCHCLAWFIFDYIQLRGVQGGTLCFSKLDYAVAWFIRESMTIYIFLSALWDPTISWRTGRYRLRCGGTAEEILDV
Method in brief: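 Microsomal preparation assayed for glucosylceramide synthase by direct HPLC measurement of ceramide conversion to glucosylceramide. GCS IC50 is the compound concentration giving 50% inhibition of enzyme activity.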

[4] = Mus musculus, B16, B16 cells, concentration causing 50% cell death, values greater than 10 represent a lack of cell death, read-out: Viability, B16 IC50
[5] = Homo sapiens, C32, C32 cells, read-out: Viability, C32 IC50
[6] = Homo sapiens, C32 human melanoma cells, read-out: GM3 C32 IC50
[7] = Mus musculus, B16 mouse melanoma cells, read-out: GM3 B16 IC50
[8] = read-out: Viability, B16 IC50, B16 cells, concentration causing 50% cell death, values greater than 10 represent a lack of cell death
[9] = read-out: Viability, C32 IC50, C32 cells
[10] = Homo sapiens, read-out: GM3 C32 IC50, C32 human melanoma cells
[11] = Mus musculus, read-out: GM3 B16 IC50, B16 mouse melanoma cells

| IC50 [1, 6] [nM] | IC50 [2, 7] [nM] | Structure (SMILES) | IC50 (B16 mouse melanoma cells; [4]) [nM] | IC50 (C32 human melanoma cells; [5]) [nM] | IC50 [3] [nM] | IC50 (B16 mouse melanoma cells; [8]) [nM] | IC50 (C32 human melanoma cells; [9]) [nM] | IC50 [1, 10] [nM] | IC50 [2, 11] [nM] | IC50 (B16 mouse melanoma cells; Mus musculus, B16, read-out: Viability, B16 IC50) [nM] | IC50 (C32 human melanoma cells; Homo sapiens, C32, read-out: Viability, C32 IC50, C32 cells) [nM] | IC50 ([1]; read-out: GM3 C32 IC50, C32 human melanoma cells) [nM] | IC50 ([2]; read-out: GM3 B16 IC50, B16 mouse melanoma cells) [nM] |
| --- | --- | --- | --- | --- | --- | --- | --- | --- | --- | --- | --- | --- | --- |
| 0.29 | 73.8 | COC1(C(=O)NC2(C)CCN3CCC2CC3)CCN(c2nccc(-c3ccc(OCCF)cc3)n2)CC1 (stereo not drawn) [Example 103, 1-(4-(4-(2-Fluoroethoxy)phenyl)pyrimidin-2-yl)-4-methoxy-N-(4-methyl-1-azabicyclo[3.2.2]nonan-4-yl)piperidine-4-carboxamide] | 3110 | 316 | 3.65 | – | – | – | – | – | – | – | – |
| – | – | CC(C)(NC(=O)OC1CN2CCC1CC2)c1ccc(-c2ccc(CCO)cc2)cc1 (stereo not drawn) [Example 226, Quinuclidin-3-yl (2-(4′-(2-hydroxyethyl)-[1,1′-biphenyl]-4-yl)propan-2-yl)carbamate] | – | – | 148 | ≥ 10000 | ≥ 10000 | 22.3 | 656 | – | – | – | – |
| 337 | 1060 | CC1(NC(=O)N2CCC(c3cccc(-c4ccccc4)c3)CC2)CCN2CCC1CC2 (stereo not drawn) [Example 52, 4-([1,1′-Biphenyl]-3-yl)-N-(4-methyl-1-azabicyclo[3.2.2]nonan-4-yl)piperidine-1-carboxamide] | 7360 | 8640 | 503 | – | – | – | – | – | – | – | – |
| – | – | COCCOc1ccc(-c2cccc(C(C)(C)NC(=O)OC3CN4CCC3CC4)c2)nc1 (stereo not drawn) [Example 309, Quinuclidin-3-yl 2-(3-(5-(2-methoxyethoxy)pyridin-2-yl)phenyl)propan-2-ylcarbamate] | – | – | 106 | – | – | 14 | 188 | ≥ 10000 | 3160 | – | – |
| 0.117 | 71.4 | COCCOc1ccc(-c2nc(N3CCC(F)(C(=O)NC4(C)CCN5CCC4CC5)CC3)ncc2F)cc1 (stereo not drawn) [Example 91, 4-Fluoro-1-(5-fluoro-4-(4-(2-methoxyethoxy)phenyl)pyrimidin-2-yl)-N-(4-methyl-1-azabicyclo[3.2.2]nonan-4-yl)piperidine-4-carboxamide] | 2660 | 100 | 2.04 | – | – | – | – | – | – | – | – |
| 0.587 | 5.15 | CC(C)(NC(=O)NC1(C)CCN2CCC1CC2)c1ccc(-c2ccc(OCCn3cccn3)cc2)cc1 (stereo not drawn) [Example 181, 1-(2-(4′-(2-(1H-Pyrazol-1-yl)ethoxy)-[1,1′-biphenyl]-4-yl)propan-2-yl)-3-(4-methyl-1-azabicyclo[3.2.2]nonan-4-yl)urea] | 1000 | 1000 | 2.33 | – | – | – | – | – | – | – | – |
| 1080 | 1680 | O=C(OC1CCN2CCC1CC2)N1CCN(c2cccc(-c3ccc(F)cc3)c2)CC1 (stereo not drawn) [Example 24, 1-Azabicyclo[3.2.2]nonan-4-yl 4-(4′-fluoro-[1,1′-biphenyl]-3-yl)piperazine-1-carboxylate] | 3610 | 3980 | 9520 | – | – | – | – | – | – | – | – |
| 4.32 | 193 | CC(C)(C)CCS(=O)(=O)c1ccc(C#CC(C)(C)NC(=O)OC2CCN3CCC2CC3)cc1 (stereo not drawn) [Example 335, 1-Azabicyclo[3.2.2]nonan-4-yl (4-(4-((3,3-dimethylbutyl)sulfonyl)phenyl)-2-methylbut-3-yn-2-yl)carbamate] | 2150 | 1000 | 14.6 | – | – | – | – | – | – | – | – |
| 44.7 | 318 | CC1(COc2ccc(-c3ccc(C(C)(C)NC(=O)N4CCN5CCC4CC5)cc3)cc2)COC1 [Example 193, N-(2-(4′-((3-Methyloxetan-3-yl)methoxy)-[1,1′-biphenyl]-4-yl)propan-2-yl)-1,4-diazabicyclo[3.2.2]nonane-4-carboxamide] | ≥ 10000 | ≥ 10000 | 297 | – | – | – | – | – | – | – | – |
| 0.872 | 79 | CC1(NC(=O)C2CCN(c3cccc(-c4ccc(F)cc4)c3)CC2)CCN2CCC1CC2 (stereo not drawn) [Example 34, 1-(4′-Fluoro-[1,1′-biphenyl]-3-yl)-N-(4-methyl-1-azabicyclo[3.2.2]nonan-4-yl)piperidine-4-carboxamide] | 4720 | 316 | 4.78 | – | – | – | – | – | – | – | – |
| 8.49 | 157 | COCCCOc1cnc(-c2cccc(C(C)(C)NC(=O)OC3CCN4CCC3CC4)c2)nc1 (stereo not drawn) [Example 324, 1-Azabicyclo[3.2.2]nonan-4-yl (2-(3-(5-(3-methoxypropoxy)pyrimidin-2-yl)phenyl)propan-2-yl)carbamate] | ≥ 10000 | 1000 | 96.9 | – | – | – | – | – | – | – | – |
| – | – | CN(C)C(=O)c1ccc(Oc2ccc(C(C)(C)NC(=O)OC3CN4CCC3CC4)cc2)cc1 (stereo not drawn) [Example 287, Quinuclidin-3-yl 2-(4-(4-(dimethylcarbamoyl)phenoxy)phenyl)propan-2-ylcarbamate] | – | – | 1330 | ≥ 10000 | 3160 | – | – | – | – | 229 | 2200 |
| 41.2 | 1220 | CNC(=O)c1ccc(Oc2ccc(C(C)(C)NC(=O)OC3CCN4CCC3CC4)cc2)cc1 (stereo not drawn) [Example 292, 1-Aza-bicyclo[3.2.2]nonan-4-yl 2-(4-(4-(methylcarbamoyl)phenoxy)phenyl)propan-2-ylcarbamate] | ≥ 10000 | ≥ 10000 | 207 | – | – | – | – | – | – | – | – |

| Structure (SMILES) | IC50 [1, 6] [nM] | IC50 [2, 7] [nM] | IC50 (B16 mouse melanoma cells; [4]) [nM] | IC50 (C32 human melanoma cells; [5]) [nM] | IC50 [3] [nM] | IC50 (B16 mouse melanoma cells; [8]) [nM] | IC50 (C32 human melanoma cells; [9]) [nM] | IC50 [1, 10] [nM] | IC50 [2, 11] [nM] | IC50 (B16 mouse melanoma cells; Mus musculus, B16, read-out: Viability, B16 IC50) [nM] | IC50 (C32 human melanoma cells; Homo sapiens, C32, read-out: Viability, C32 IC50, C32 cells) [nM] | IC50 ([1]; read-out: GM3 C32 IC50, C32 human melanoma cells) [nM] | IC50 ([2]; read-out: GM3 B16 IC50, B16 mouse melanoma cells) [nM] |
| --- | --- | --- | --- | --- | --- | --- | --- | --- | --- | --- | --- | --- | --- |
| CC1(NC(=O)C2CCN(c3cccc(-c4ccccc4)c3)CC2)CN2CCC1CC2 (stereo not drawn) [Example 35, 1-([1,1′-Biphenyl]-3-yl)-N-(3-methylquinuclidin-3-yl)piperidine-4-carboxamide] | 7.11 | 149 | 7310 | 1000 | 49.6 | – | – | – | – | – | – | – | – |
| COCCOc1ccc(Oc2nc(N3CCC(F)(C(=O)NC4(C)CN5CCC4CC5)CC3)ncc2F)cc1 (stereo not drawn) [Example 118, 4-Fluoro-1-(5-fluoro-4-(4-(2-methoxyethoxy)phenoxy)pyrimidin-2-yl)-N-(3-methylquinuclidin-3-yl)piperidine-4-carboxamide] | 1.16 | 63.4 | 4640 | 1000 | 2.54 | – | – | – | – | – | – | – | – |
| CN(C(=O)C1CCN(c2nccc(-c3ccc(F)cc3)n2)CC1)C1CN2CCC1CC2 (stereo not drawn) [Example 109, 1-(4-(4-Fluorophenyl)pyrimidin-2-yl)-N-methyl-N-(quinuclidin-3-yl)piperidine-4-carboxamide] | 8.99 | 2230 | 9530 | 3160 | 40.1 | – | – | – | – | – | – | – | – |
| CCC1(NC(=O)NC(C)(C)C#Cc2ccc(COCc3cccnc3)cc2)CN2CCC1CC2 (stereo not drawn) [Example 332, 1-(3-Ethylquinuclidin-3-yl)-3-(2-methyl-4-(4-((pyridin-3-ylmethoxy)methyl)phenyl)but-3-yn-2-yl)urea] | 15.5 | 945 | ≥ 10000 | ≥ 10000 | 49.4 | – | – | – | – | – | – | – | – |
| O=C(N1CCN(c2ccccc2)CC1)N1CCN2CCC1CC2 [Example 11, 1,4-Diazabicyclo[3.2.2]nonan-4-yl(4-phenylpiperazin-1-yl)methanone] | > 10000 | > 10000 | ≥ 10000 | ≥ 10000 | 20800 | – | – | – | – | – | – | – | – |
| COCCOc1ccc(-c2ccc(C3(NC(=O)NC4(C)CN5CCC4CC5)CC3)cc2)cc1 (stereo not drawn) [Example 163, 1-(1-(4′-(2-Methoxyethoxy)-[1,1′-biphenyl]-4-yl)cyclopropyl)-3-(3-methylquinuclidin-3-yl)urea] | 0.539 | 6.57 | 1000 | 173 | 8.49 | – | – | – | – | – | – | – | – |
| COCCOc1ccc(Cc2cnc(N3CCC(F)(C(=O)NC4(C)CN5CCC4CC5)CC3)nc2)cc1 (stereo not drawn) [Example 136] | 0.716 | 24.9 | ≥ 10000 | 1000 | 7.9 | – | – | – | – | – | – | – | – |
| CCCC1(NC(=O)NC(C)(C)C#Cc2ccc(COCc3cccnc3)cc2)CN2CCC1CC2 (stereo not drawn) [Example 333, 1-(2-Methyl-4-(4-((pyridin-3-ylmethoxy)methyl)phenyl)but-3-yn-2-yl)-3-(3-propylquinuclidin-3-yl)urea] | 6.18 | 413 | ≥ 10000 | 3160 | 16.1 | – | – | – | – | – | – | – | – |
